# Laboratory results: patent publication US20130345249A1, “Formulations for the prevention and treatment of Wolbachia-related disease” (priority 2011, published 2013)
# What was measured:
# Wolbachia [1] = assay: Microscopy-based high-throughput screen in Wolbachia-infected Drosophila tissue culture cells; assay type: cell-based; settings: 100 uM in media, 3 days incubation
# Experimental: In collaboration with the microscope company Molecular Devices, we optimized journaling software that analyzes the level of cytoplasmic DAPI (Wolbachia) fluorescence per cell in all wells of the plate. […] In this pilot, compounds were added to Wolbachia-infected cells at a final concentration of 100 uM in media and allowed to incubate for 3 days. Cells were then fixed, stained, imaged, and analyzed by automated machinery.
# Brugia malayi = Brugia malayi drug feeding assay (worm mortality); assay type: in vivo
# Text: Small molecules of interest found by the primary tissue culture screen must be tested in animal models to determine their relevance to Wolbachia in vivo. Because Wolbachia are vital endosymbionts of Brugia malayi worms that cause Elephantiasis, the next important step was to validate whether compounds found in the high-throughput screen could affect the viability of those worms. To assay this, we performed a pilot feeding assay by distributing Brugia malayi into 12-well plates containing tissue culture media and different compounds added to a final concentration of 100 uM. […] In this feeding assay, we observed that worms fed with pararosanaline pamoate ceased movement within 2 hours, whereas all other treatments took substantially longer to affect the worms (FIG. 3). Our preliminary dose-response tests of pararosanaline pamoate indicate that the lethal feeding dose lies between 25 uM and 10 uM.
# Wolbachia [2] = assay: Confocal imaging of Wolbachia in treated Brugia malayi worms; assay type: in vivo
# Wolbachia [3] = assay: Wolbachia titer in ovarian tissues of fed D. melanogaster (confocal microscopy, image-based quantification); assay type: in vivo, Wolbachia (in Drosophila melanogaster)
# Experimental: As the next validation step, it was important to determine whether the compounds found in our screen can cure a host of Wolbachia while also permitting host viability. To investigate this, we first performed a feeding assay using Wolbachia-infected Drosophila melanogaster flies. Flies were provided with fly food containing pararosanaline pamoate at concentrations of 100 uM or less, and viability was scored over time. […] To then determine whether the treatment affected the quantity of Wolbachia carried by the D. melanogaster host, we fed pararosaniline pamoate to Wolbachia-infected fruit flies for 3 days and analyzed Wolbachia titer in ovarian tissues. This was performed through use of confocal microscopy and image-based bacterial quantification software.
smiles,measurement,setting,value
CC(C)(C)CC(C)(C)c1ccc(O)c(Cc2ccc(Cl)cc2Cl)c1 [Clofoctol],cytoplasmic DAPI (Wolbachia) fluorescence per cell / hit in tissue culture screen,Wolbachia [1],identified by the screening methods of the invention
COC(=O)[C@H]1[C@H]2C[C@H]3c4[nH]c5cc(OC)ccc5c4CCN3C[C@H]2C[C@@H](OC(=O)c2cc(OC)c(OC)c(OC)c2)[C@@H]1OC [Isoreserpine],cytoplasmic DAPI (Wolbachia) fluorescence per cell / hit in tissue culture screen,Wolbachia [1],identified by the screening methods of the invention
N=C1C=CC(=C(c2ccc(N)cc2)c2ccc(N)cc2)C=C1 [Pararosaniline Pamoate],cytoplasmic DAPI (Wolbachia) fluorescence per cell / hit in tissue culture screen,Wolbachia [1],identified by the screening methods of the invention
same,cytoplasmic DAPI (Wolbachia) fluorescence per cell / hit in tissue culture screen,Wolbachia [1]; listed as pararosanaline pamoate,found in the pilot tissue culture screen
same,time until worms ceased movement,"Brugia malayi; 100 uM in tissue culture media, 12-well plates",≤ 2 h
same,worm viability after treatment (FIG. 3),Brugia malayi; drug feeding assay,Inviable
same,"number of Wolbachia carried by host, worms killed by drug vs untreated worms",Wolbachia [2],no visible difference
same,Wolbachia titer in Drosophila oocytes (FIG. 5),Wolbachia [3]; average quantity within a single focal plane of oocytes,reduced
same,Wolbachia titer relative to control levels,"Wolbachia [3]; fed for 3 days, ovarian tissues (oocytes), preliminary",60%
Cc1ncc(CO)c(CO)c1O.Cl [pyroxidine HCl],cytoplasmic DAPI (Wolbachia) fluorescence per cell / hit in tissue culture screen,Wolbachia [1],found in the pilot tissue culture screen
